{"source": "patent US20250263376A1", "about": "“(E)-N-CINNAMOYLAMINOALKANOLS WITH MELANOGENESIS INHIBITORY ACTIVITY” (Uniwersytet Jagiellonski, priority 2024, published 2025);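 for Increase in the number of yellow wells compared to the reference level, E. coli WP2: bacteria exposed to compound for 90 min at 37 °C in 24-well plates, then transferred with indicator medium to 384-well plates and incubated 48 h before yellow well counting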;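 for Increase in the number of yellow wells compared to the reference level, TA1535: bacteria exposed 90 min at 37 °C in exposure medium, then 48 h in indicator medium in 384-well plates, yellow (revertant) wells counted per condition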", "key": {"keratinocytes (HaCaT) [1]": {"test_system": "keratinocytes (HaCaT)", "test": "Safety, LDH test in keratinocytes", "format": "cell-based", "details": "48 hours, vs Triton X-100", "experimental": "(§1) In order to test the safety of the compounds, both normal human cells were used: keratinocytes (HaCaT), fibroblasts (BJ), primary melanocytes that occur in the skin, as well as human cancer cells: the hepatocarcinoma line HepG2 and the neuroblastoma line SH-SY5Y, which are considered a model for the assessment of hepatocytotoxicity and neurocytotoxicity. The concentrations of the tested compounds in the range of […] were used in the studies. The cell lines used in the research were purchased from the American Type Culture Collection (ATCC) and were cultured in media recommended by the manufacturer with the addition of FBS and antibiotics in an incubator ensuring appropriate culture conditions, i.e. humidity, temperature and CO2 concentration. Cells were seeded into multiwell plates and incubated with the test compounds for 48 hours. After this time, MTT and LDH tests were performed to assess cell viability. The MTT test is based on the ability to transform the substrate: [3-(4,5-dimethyl-2-thiazolyl)-2,5-diphenyl-2H-tetrazolium bromide into a colored product only by living cells. The absorbance at 570 nm, which corresponds to the absorption maximum for the product, is directly proportional to cell viability. The LDH test is based on testing the activity of the enzyme lactate dehydrogenase in the culture medium, which is released from cells as a result of damage to the cell membrane, e.g. as a result of cell death. Triton X-100 was used as a positive control in the test. The determination is colorimetric, the substrate is transformed by the released enzyme into a colored product, an increase in absorbance indicates a larger amount of the released enzyme, and thus confirms greater damage to cell membranes. Tables 7 and 8 present the results obtained, which correspond to the viability of cells incubated with the compounds in relation to the viability of cells constituting a control sample, i.e. incubated with the solvent (DMSO) at the same concentration as in the case of the groups tested in the MTT test or in relation to the results obtained for the Triton X-100 positive control in the LDH test. They indicate that the compounds are safe at the concentrations tested."}, "neuroblastoma SH-SY5Y [2]": {"test_system": "neuroblastoma SH-SY5Y", "test": "Safety, MTT test in SH-SY5Y", "format": "cell-based", "details": "48 hours", "experimental": "as §1"}, "keratinocytes (HaCaT) [3]": {"test_system": "keratinocytes (HaCaT)", "test": "Safety, MTT test in keratinocytes", "format": "cell-based", "details": "48 hours", "experimental": "as §1"}, "S. typhimurium TA1535": {"test_system": "S. typhimurium TA1535", "test": "Ames microplate test, TA1535"}, "S. typhimurium TA1537": {"test_system": "S. typhimurium TA1537", "test": "Ames microplate test, TA1537", "format": "cell-based, Salmonella typhimurium", "experimental": "Bacteria were grown overnight in growth medium."}, "S. typhimurium TA100": {"test_system": "S. typhimurium TA100", "test": "Ames microplate test, TA100", "format": "cell-based, Salmonella typhimurium"}, "primary melanocytes": {"test_system": "primary melanocytes", "test": "Safety, MTT test in primary melanocytes", "format": "cell-based", "details": "48 hours", "experimental": "as §1"}, "E. coli WP2": {"test_system": "E. coli WP2", "test": "Ames microplate test, E. coli WP2", "method": "The study used the Ames microplate test (Ames MPF™ Penta 2 by Xenometrix, Allschwil, Switzerland). Growth medium, exposure medium, indicator medium, positive controls, hepatic microsomal fraction, NADP, glucose-6-phosphate, Salmonella typhimurium and Escherichia coli strains were components of the purchased experimental kit. Bacteria were grown overnight in growth medium. They were then exposed to the test compound at the appropriate concentration in exposure medium without or with the rat microsomal fraction S9 in 24-well plates for 90 min at 37° C. with shaking. Then, indicator medium was added to the wells and pipetted into 384-well plates, which were incubated for 48 hours at 37° C. without shaking. Results were assessed by counting the wells in which the medium turned yellow for each experimental condition."}, "fibroblasts (BJ)": {"test_system": "fibroblasts (BJ)", "test": "Safety, MTT test in fibroblasts", "format": "cell-based", "details": "48 hours", "experimental": "as §1"}, "neuroblastoma SH-SY5Y [4]": {"test_system": "neuroblastoma SH-SY5Y", "test": "Safety, LDH test in SH-SY5Y", "format": "cell-based", "details": "48 hours, vs Triton X-100", "experimental": "as §1"}, "hepatocarcinoma HepG2": {"test_system": "hepatocarcinoma HepG2", "test": "Safety, MTT test in HepG2", "format": "cell-based", "details": "48 hours", "experimental": "as §1"}, "CHO-K1 cells": {"test_system": "CHO-K1 cells", "test": "Cytotoxicity (MTT) in CHO-K1 cells before the micronucleus test", "format": "cell-based, Chinese hamster", "details": "24 hours", "summary_of_the_method": "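CHO-K1 cells were grown in F-12K with 10% FBS at 37° C and incubated with compounds for 24 h, as a screen to set safe concentrations for the micronucleus test. Viability was read by MTT against a control given DMSO at the same concentration.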"}}}
{"smiles": "O=C(/C=C/c1ccc(Cl)cc1)NCCCCCO", "note": "[Compound A-111, (2E)-3-(4-chlorophenyl)-N-(5-hydroxypentyl)prop-2-enamide]", "values": [{"measurement": "LDH, Keratinocytes (HaCaT)", "setting": "keratinocytes (HaCaT) [1]; 100 μM", "result": "4.69 percentage of positive control"}, {"measurement": "LDH, Keratinocytes (HaCaT)", "setting": "keratinocytes (HaCaT) [1]; 150 μM", "result": "4.43 percentage of positive control"}, {"measurement": "LDH, Keratinocytes (HaCaT)", "setting": "keratinocytes (HaCaT) [1]; 200 μM", "result": "6.49 percentage of positive control"}, {"measurement": "LDH, Keratinocytes (HaCaT)", "setting": "keratinocytes (HaCaT) [1]; 250 μM", "result": "13.55 percentage of positive control"}, {"measurement": "MTT, Neuroblastoma SH-SY5Y", "setting": "neuroblastoma SH-SY5Y [2]; 100 μM", "result": "100.14 ± 3.22 % of solvent control"}, {"measurement": "MTT, Neuroblastoma SH-SY5Y", "setting": "neuroblastoma SH-SY5Y [2]; 150 μM", "result": "99.32 ± 3.36 % of solvent control"}, {"measurement": "MTT, Neuroblastoma SH-SY5Y", "setting": "neuroblastoma SH-SY5Y [2]; 200 μM", "result": "100.55 ± 2.31 % of solvent control"}, {"measurement": "MTT, Neuroblastoma SH-SY5Y", "setting": "neuroblastoma SH-SY5Y [2]; 250 μM", "result": "99.93 ± 4.36 % of solvent control"}, {"measurement": "MTT, Keratinocytes (HaCaT)", "setting": "keratinocytes (HaCaT) [3]; 100 μM", "result": "101.68 ± 3.45 % of solvent control"}, {"measurement": "MTT, Keratinocytes (HaCaT)", "setting": "keratinocytes (HaCaT) [3]; 150 μM", "result": "101.56 ± 1.94 % of solvent control"}, {"measurement": "MTT, Keratinocytes (HaCaT)", "setting": "keratinocytes (HaCaT) [3]; 200 μM", "result": "101.04 ± 2.77 % of solvent control"}, {"measurement": "MTT, Keratinocytes (HaCaT)", "setting": "keratinocytes (HaCaT) [3]; 250 μM", "result": "91.57 ± 2.10 % of solvent control"}, {"measurement": "Increase in the number of yellow wells compared to the reference level, TA1535", "setting": "S. typhimurium TA1535; 0.5 mM, + S9", "result": 0.58}, {"measurement": "Increase in the number of yellow wells compared to the reference level, TA1535", "setting": "S. typhimurium TA1535; 0.5 mM, without S9", "result": 0.55}, {"measurement": "Increase in the number of yellow wells compared to the reference level, TA1535", "setting": "S. typhimurium TA1535; 1.0 mM, + S9", "result": 0.35}, {"measurement": "Increase in the number of yellow wells compared to the reference level, TA1535", "setting": "S. typhimurium TA1535; 1.0 mM, without S9", "result": 0.18}, {"measurement": "Increase in the number of yellow wells compared to the reference level, TA1535", "setting": "S. typhimurium TA1535; 2.0 mM, + S9", "result": 0.23}, {"measurement": "Increase in the number of yellow wells compared to the reference level, TA1535", "setting": "S. typhimurium TA1535; 2.0 mM, without S9", "result": 1.65}, {"measurement": "Increase in the number of yellow wells compared to the reference level, TA1537", "setting": "S. typhimurium TA1537; 0.5 mM, + S9", "result": 0.27}, {"measurement": "Increase in the number of yellow wells compared to the reference level, TA1537", "setting": "S. typhimurium TA1537; 0.5 mM, without S9", "result": 0.80}, {"measurement": "Increase in the number of yellow wells compared to the reference level, TA1537", "setting": "S. typhimurium TA1537; 1.0 mM, + S9", "result": 0.45}, {"measurement": "Increase in the number of yellow wells compared to the reference level, TA1537", "setting": "S. typhimurium TA1537; 1.0 mM, without S9", "result": 0.54}, {"measurement": "Increase in the number of yellow wells compared to the reference level, TA1537", "setting": "S. typhimurium TA1537; 2.0 mM, + S9", "result": 0.27}, {"measurement": "Increase in the number of yellow wells compared to the reference level, TA1537", "setting": "S. typhimurium TA1537; 2.0 mM, without S9", "result": 0.54}, {"measurement": "Increase in the number of yellow wells compared to the reference level, TA100", "setting": "S. typhimurium TA100; 0.5 mM, + S9", "result": 0.97}, {"measurement": "Increase in the number of yellow wells compared to the reference level, TA100", "setting": "S. typhimurium TA100; 0.5 mM, without S9", "result": 0.74}, {"measurement": "Increase in the number of yellow wells compared to the reference level, TA100", "setting": "S. typhimurium TA100; 1.0 mM, + S9", "result": 0.47}, {"measurement": "Increase in the number of yellow wells compared to the reference level, TA100", "setting": "S. typhimurium TA100; 1.0 mM, without S9", "result": 0.39}, {"measurement": "Increase in the number of yellow wells compared to the reference level, TA100", "setting": "S. typhimurium TA100; 2.0 mM, + S9", "result": 0.67}, {"measurement": "Increase in the number of yellow wells compared to the reference level, TA100", "setting": "S. typhimurium TA100; 2.0 mM, without S9", "result": 0.42}, {"measurement": "MTT, Primary melanocytes", "setting": "primary melanocytes; 100 μM", "result": "104.51 ± 1.19 % of solvent control"}, {"measurement": "MTT, Primary melanocytes", "setting": "primary melanocytes; 150 μM", "result": "103.09 ± 1.79 % of solvent control"}, {"measurement": "MTT, Primary melanocytes", "setting": "primary melanocytes; 200 μM", "result": "99.25 ± 1.92 % of solvent control"}, {"measurement": "MTT, Primary melanocytes", "setting": "primary melanocytes; 250 μM", "result": "93.39 ± 1.60 % of solvent control"}, {"measurement": "Increase in the number of yellow wells compared to the reference level, E. coli WP2", "setting": "E. coli WP2; 0.5 mM, + S9", "result": 0.62}, {"measurement": "Increase in the number of yellow wells compared to the reference level, E. coli WP2", "setting": "E. coli WP2; 0.5 mM, without S9", "result": 1.46}, {"measurement": "Increase in the number of yellow wells compared to the reference level, E. coli WP2", "setting": "E. coli WP2; 1.0 mM, + S9", "result": 0.71}, {"measurement": "Increase in the number of yellow wells compared to the reference level, E. coli WP2", "setting": "E. coli WP2; 1.0 mM, without S9", "result": 1.10}, {"measurement": "Increase in the number of yellow wells compared to the reference level, E. coli WP2", "setting": "E. coli WP2; 2.0 mM, + S9", "result": 0.98}, {"measurement": "Increase in the number of yellow wells compared to the reference level, E. coli WP2", "setting": "E. coli WP2; 2.0 mM, without S9", "result": 1.10}, {"measurement": "MTT, Fibroblasts (BJ)", "setting": "fibroblasts (BJ); 100 μM", "result": "99.88 ± 5.25 % of solvent control"}, {"measurement": "MTT, Fibroblasts (BJ)", "setting": "fibroblasts (BJ); 150 μM", "result": "100.94 ± 3.37 % of solvent control"}, {"measurement": "MTT, Fibroblasts (BJ)", "setting": "fibroblasts (BJ); 200 μM", "result": "98.94 ± 4.04 % of solvent control"}, {"measurement": "MTT, Fibroblasts (BJ)", "setting": "fibroblasts (BJ); 250 μM", "result": "94.51 ± 5.03 % of solvent control"}, {"measurement": "LDH, Neuroblastoma SH-SY5Y", "setting": "neuroblastoma SH-SY5Y [4]; 100 μM", "result": "4.90 percentage of positive control"}, {"measurement": "LDH, Neuroblastoma SH-SY5Y", "setting": "neuroblastoma SH-SY5Y [4]; 150 μM", "result": "4.61 percentage of positive control"}, {"measurement": "LDH, Neuroblastoma SH-SY5Y", "setting": "neuroblastoma SH-SY5Y [4]; 200 μM", "result": "5.98 percentage of positive control"}, {"measurement": "LDH, Neuroblastoma SH-SY5Y", "setting": "neuroblastoma SH-SY5Y [4]; 250 μM", "result": "6.77 percentage of positive control"}, {"measurement": "MTT, Hepatocarcinoma HepG2", "setting": "hepatocarcinoma HepG2; 100 μM", "result": "101.10 ± 6.01 % of solvent control"}, {"measurement": "MTT, Hepatocarcinoma HepG2", "setting": "hepatocarcinoma HepG2; 150 μM", "result": "97.87 ± 3.27 % of solvent control"}, {"measurement": "MTT, Hepatocarcinoma HepG2", "setting": "hepatocarcinoma HepG2; 200 μM", "result": "98.19 ± 3.27 % of solvent control"}, {"measurement": "MTT, Hepatocarcinoma HepG2", "setting": "hepatocarcinoma HepG2; 250 μM", "result": "96.27 ± 2.57 % of solvent control"}, {"measurement": "% Viability [mean], CHO-K1", "setting": "CHO-K1 cells; 100 μM", "result": 86.1, "unit": "%"}, {"measurement": "% Viability [mean], CHO-K1", "setting": "CHO-K1 cells; 150 μM", "result": 95.6, "unit": "%"}, {"measurement": "% Viability [mean], CHO-K1", "setting": "CHO-K1 cells; 200 μM", "result": 98.6, "unit": "%"}]}
